The subject of test [1] is Human Endometrial Ishikawa Cells. Put plainly: Alkaline Phosphatase Assay in Human Endometrial Ishikawa Cells. The format is cell-based. As to conditions: for EC50: read-out: Ishikawa Agonist EC50; for IC50: read-out: Ishikawa Antagonist IC50. Here is the method: Alkaline Phosphatase Assay in Human Endometrial Ishikawa Cells
This assay was run according to the procedure described by Albert et a., Cancer Res, […], 50(11), 330-6-10, with minor modification.
Ishikawa cells (from ATCC) were maintained in DMEM/F12 (1:1) phenol red free medium (Gibco) supplemented with 10% calf serum (Hyclone). 24 hours prior to testing, the medium was changed to DMEM/F12 (1:1) phenol red free containing 2% calf serum.
Compounds to be tested in the agonist mode were added to the culture media at varying concentrations. Compounds to be treated in the antagonist mode were prepared similarly, and 10 nM 17β-estradiol was also added to the culture media. The cells were then incubated at 37° C. for 3 days. On the fourth day, the media was remove, 1 volume of 1× Dilution Buffer (Clontech) was added to the well followed by addition of 1 volume of Assay Buffer (Clontech). The cells were then incubated at room temperature for 5 minutes. 1 volume of freshly prepared Chemiluminescence Buffer (1 volume of chemiluminescent substrate (CSPD) in 19 volume Chemiluminescent Enhancer with final concentration of CSPD at 1.25 mM; Sigma Chemical Co.) was added. The cells were incubated at room temperature for 10 minutes and then quantified on a luminometer. The increase of chemiluminescence over vehicle control was used to calculate the increase in alkaline phosphatase activity.
(§1) Representative compound of the present invention were tested according to the procedure described in Examples 14 and 15 above, with results as listed in Table. 7.

For another test, the target named is T1, hER-β (Homo sapiens, UniProt Q92731).
T1 construct: purchased Panvera
Kind of test: Estrogen Receptor β Fluorescence Polarization Assay. As to conditions: displacement of Fluormone ES2, fluorescence polarization; read-out: ERβ Binding IC50. An excerpt:
Estrogen Receptor β Fluorescence Polarization Assay
This assay monitors binding of a fluorescent analog of estrogen (Fluormone ES2, Panvera) to the estrogen receptor. Plates are read in a fluorometer that can be set to polarization mode. A decrease in […] relative to vehicle control is an indication of binding of a compound to the receptor.
It is crucial to avoid introduction of air bubbles into the reaction in each well of the 96 well plate throughout this procedure. (Bubbles on the surface of the reaction disrupt light flow, affecting the polarization reading.) However, it is also crucial to effectively mix the reaction components upon addition to the well.
On ice, a 2× standard mixture of Assay Buffer (Panvera), 10 nM DTT and 40 nM ES2 was prepared. On ice, a 2× reaction mixture of Assay Buffer (Panvera), and 20 nM hER-β (Panvera) and 40 nM ES2 was also prepared.
Dilutions of test compound were prepared in 30% (v/v) dimethyl sulfoxide/50 mM HEPES, pH 7.5. At this point, the dilutions were 40× the final required concentration.
The standard mixture at 50 μL was then added to each well. The reaction mixture at 48 μL was added to all wells. The compound dilution at 2.5 μL was added to the appropriate wells. The reaction mixtures were mixed using a manual pipette, a roll of aluminum foil adhesive cover was placed on the plate and the plate incubated at room temperature for 1 hour.
Each well on the plate was then read in an LjL Analyst with an excitation wavelength of […] and an emission wavelength of 538.
(§2) Representative compound of the present invention were tested according to the procedure described above for binding to the Estrogen Receptor α and Estrogen Receptor β, with results as listed in Table 6.
For orientation: Polarisation of emitted light reports the rotation of a fluorescent probe.

In a further test the test system is MCF-7 cells. Put plainly: MCF-7 Cell Proliferation Assay. The format is cell-based. Here is the method:
MCF-7 Cell Proliferation Assay
This assay was run according to the procedure described by Welshons, et al., (Breast Cancer Res. Treat., 1987, 10(2), 169–75), with minor modification.
Briefly, MCF-7 cells (from Dr. C. Jordan, Northwestern University) were maintained in RPMI 1640 phenol red free medium (Gibco) in 10% FBS (Hyclone), supplemented with bovine insulin and non-essential amino acid (Sigma). The cells were initially treated with 4-hydroxytamoxifen (10^−8 M) and let stand at 37° C. for 24 hours. Following this incubation with tamoxifen, the cells were treated with compounds at various concentrations.
Compounds to be tested in the agonist mode were added to the culture media at varying concentrations. Compounds to be treated in the antagonist mode were prepared similarly, and 10 nM 17β-estradiol was also added to the culture media. The cells were incubated for 24 hours at 37° C. Following this incubation, 0.1 μCi of ^14C-thymidine (56mCi/mmol, Amersham) was added to the culture media and the cells were incubated for an additional 24 hours at 37° C. The cells were then washed twice with Hank's buffered salt solution (HBSS) (Gibco) and counted with a scintillation counter. The increase in the ^14C-thymidine in the compound treated cells relative to the vehicle control cells were reported as percent increase in cell proliferation.
as §1

In test [2] the target is T2, human estrogen receptor α (Homo sapiens, UniProt P03372).
T2 construct: purchased Panvera
T2 sequence (P03372 1-595): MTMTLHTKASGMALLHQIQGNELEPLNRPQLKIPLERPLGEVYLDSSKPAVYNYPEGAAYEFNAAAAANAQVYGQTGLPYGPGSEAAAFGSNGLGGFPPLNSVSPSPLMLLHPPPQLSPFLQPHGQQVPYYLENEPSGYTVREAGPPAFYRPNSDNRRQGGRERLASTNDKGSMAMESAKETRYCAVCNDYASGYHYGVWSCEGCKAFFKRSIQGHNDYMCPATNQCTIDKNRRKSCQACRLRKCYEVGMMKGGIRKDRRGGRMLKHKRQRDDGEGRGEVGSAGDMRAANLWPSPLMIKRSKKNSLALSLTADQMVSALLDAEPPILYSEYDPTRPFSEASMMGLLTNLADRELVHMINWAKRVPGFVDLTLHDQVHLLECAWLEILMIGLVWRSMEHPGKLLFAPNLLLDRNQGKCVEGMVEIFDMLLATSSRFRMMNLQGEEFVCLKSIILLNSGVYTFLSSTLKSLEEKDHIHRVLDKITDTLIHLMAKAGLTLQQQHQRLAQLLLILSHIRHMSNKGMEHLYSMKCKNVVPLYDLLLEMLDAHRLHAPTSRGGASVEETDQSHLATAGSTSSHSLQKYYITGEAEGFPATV
Kind of test: Estrogen Receptor α Flash Plate Assay. As to conditions: displacement of radio-labeled estrogen, FlashPlate; read-out: ERα Binding IC50. Here is the method:
Estrogen Receptor α Flash Plate Assay
This assay monitors binding of radio-labeled estrogen to the estrogen receptor. It is performed on a BioMek 2000 (Beckman). Plates are read in a scintillation counter (Packard TopCount), with decreased counts an indication of binding of a compound to the receptor. The assay was run according to the procedure described by Allan, et al., Anal. Biochem. (1999), 275(2), 243–247.
On day one, 100 μL of Estrogen Screening Buffer (ESB, Panvera) containing 5 mM dithiothreitol (DTT, Panvera), 0.5 μg mouse anti-estrogen receptor monoclonal antibody (SRA-1010, Stressgen) and 50 ng purified human estrogen receptor α (Panvera) were added to each well of a 96 well FlashPlate Plus plate crosslinked with goat anti-mouse antibodies (NEN Life Sciences). The plate was sealed and incubated at 4° C. overnight.
On day two, each well was washed three times with 200 μL PBS, pH 7.2, at room temperature. To each well was then added 98 μL radio-labeled estrogen (0.5 nM, which equals 6 nCi for a 120 Ci/mmol batch, Amersham), diluted in ESB and 5 mM dithiothreitol (DTT). To individual wells were then added 2.5 μL test compound diluted in 30% (v/v) dimethyl sulfoxide/50 mM HEPES, pH 7.5. The wells were mixed three times by aspiration, the plate sealed and incubated at room temperature for one hour. The wells were then counted for 1 min in a TopCount scintillation counter (Packard).
as §2

Where [3] appears, read: Homo sapiens, Ishikawa, 72 h, agonist mode, alkaline phosphatase activity, 3 days.
[4] abbreviates: Homo sapiens, Ishikawa, 72 h, antagonist mode, 10 nM 17β-estradiol added, alkaline phosphatase activity, 3 days.
The mark [5] stands for this setting: Homo sapiens, MCF7, agonist mode, 14C-thymidine incorporation, read-out: MCF7 Agonist EC50.
[6] abbreviates: Homo sapiens, MCF7, antagonist mode, 10 nM 17β-estradiol added, 14C-thymidine incorporation, read-out: MCF7 Antagonist IC50.

For 13 compounds, EC50 and IC50 results are on record in patent publication US7183445B2, “Cyclohexyl derivatives as selective estrogen receptor modulators” (Janssen Pharmaceutica N.V, priority 2004, dated 2007).

Where “and” joins values, the source holds several entries; their conditions need not be identical. Equal values may be shown once. Read-outs that look alike come from different tables or passages of the source. A value given as a limit tells only on which side of the number the result lay.

T1 sequence (Q92731 whole entry): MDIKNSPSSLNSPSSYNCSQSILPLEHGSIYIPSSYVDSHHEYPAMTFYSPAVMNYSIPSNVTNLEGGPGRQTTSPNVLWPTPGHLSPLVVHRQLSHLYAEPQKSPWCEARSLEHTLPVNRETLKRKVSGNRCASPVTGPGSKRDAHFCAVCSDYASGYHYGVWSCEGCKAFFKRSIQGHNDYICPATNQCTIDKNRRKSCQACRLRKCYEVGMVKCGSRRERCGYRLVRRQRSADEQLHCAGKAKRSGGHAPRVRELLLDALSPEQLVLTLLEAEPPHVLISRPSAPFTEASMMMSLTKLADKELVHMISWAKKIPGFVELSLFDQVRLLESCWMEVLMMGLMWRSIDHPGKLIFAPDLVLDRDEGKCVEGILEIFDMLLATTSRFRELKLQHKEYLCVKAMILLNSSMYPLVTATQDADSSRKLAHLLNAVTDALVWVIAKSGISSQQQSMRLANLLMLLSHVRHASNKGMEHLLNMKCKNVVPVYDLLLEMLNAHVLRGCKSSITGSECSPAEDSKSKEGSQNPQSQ

By EC50 is commonly meant the concentration giving half of the maximal effect. By IC50 is commonly meant the midpoint of a concentration-inhibition curve. “4-(4-Hydroxy-phenyl)-[4-(2-morpholin-4-yl-ethoxy)-benzyl]-methyl-cyclohex-3-enecarboxylic acid ethyl ester [Compound 38]”: the 50% effective concentration (EC50) in test [1] (agonist mode, alkaline phosphatase activity, 3 days) is above 10 µM; in the test on MCF-7 cells (agonist mode, 14C-thymidine incorporation, read-out: MCF7 Agonist EC50), above 10 µM. The IC50 was 2.1 µM in test [1] (antagonist mode, 10 nM 17β-estradiol added, alkaline phosphatase activity, 3 days); 0.9 µM and 0.5 µM on hER-β; 5 µM in the test on MCF-7 cells (antagonist mode, 10 nM 17β-estradiol added, 14C-thymidine incorporation, read-out: MCF7 Antagonist IC50).
In the case of `CN(C)CCOc1ccc(C2=C(c3ccc(O)cc3)CCC(C)(CO)C2)cc1` (centres unmarked) [Compound 3, 4-{2-[4-(2-Dimethylamino-ethoxy)-phenyl]-4-hydroxymethyl-4-methyl-cyclohex-1-enyl}-phenol], the values for the IC50 (in test [2]; on hER-β) were 6.1 µM and 5.7 µM, respectively.
For the compound `CCC1C(C)C(CO)CC(c2ccc(OC)cc2)C1c1ccc(O)cc1` (centres unmarked) [Compound 4, 4-[2-Ethyl-4-hydroxymethyl-6-(4-methoxy-phenyl)-3-methyl-cyclohexyl]-phenol], the IC50 in test [2] was above 10 µM; in test [1] (Homo sapiens, Ishikawa, 72 h) it was above 10 µM; at hER-β, 1.6 µM; in the test on MCF-7 cells (Homo sapiens, MCF7, read-out: MCF7 Antagonist IC50), above 10 µM. In addition, the EC50 in test [1] (Homo sapiens, Ishikawa, 72 h) is above 10 µM; with MCF-7 cells (Homo sapiens, MCF7, read-out: MCF7 Agonist EC50), above 10 µM.
In the case of `OC[C@@H]1CC(c2ccccc2)=C(c2ccccc2)C[C@@H]1CO` [Compound 18], the IC50 in test [2] was above 10 µM; in test [1] (setting [4]) it was above 10 µM; on hER-β, below 10 µM; with MCF-7 cells (setting [6]), above 10 µM. Moreover, the EC50 (in test [1] (setting [3]); in the test on MCF-7 cells (setting [5])) was above 10 µM each time.
With `CCC1C(c2ccc(O)cc2)=C(c2ccc(OC)cc2)CC(CO)C1C` (centres unmarked) [Compound 20, 4-[6-Ethyl-4-hydroxymethyl-2-(4-methoxy-phenyl)-5-methyl-cyclohex-1-enyl]-phenol], the IC50 in test [2] was 1.85 µM; in test [1] (setting [4]) it was 4.5 µM; at hER-β, 0.1 µM; in the test on MCF-7 cells (setting [6]), above 10 µM. Further, the results for the EC50 (in test [1] (setting [3]); in the test with MCF-7 cells (setting [5])) were 0.7 µM and 0.48 µM, respectively.
As to `CC1(CO)CC=C(c2ccc(O)cc2)CC1` (centres unmarked) [Compound 25, 4-(4-Hydroxymethyl-4-methyl-cyclohex-1-enyl)-phenol], the IC50 in test [2] was 0.45 µM; in test [1] (setting [4]) it was 10 µM; at hER-β, 0.35 µM; with MCF-7 cells (setting [6]) it was above 10 µM. Besides, the EC50 is 0.1 µM in test [1] (setting [3]) and 0.2 µM in the test on MCF-7 cells (setting [5]).
With `COc1ccc(C2=C(c3ccc(OC)cc3)CC(CO)C(CO)C2)cc1` (centres unmarked) [Compound 26, [6-Hydroxymethyl-3,4-bis-(4-methoxy-phenyl)-cyclohex-3-enyl]-methanol], the IC50 (in test [2]; in test [1] (setting [4]); at hER-β; in the test on MCF-7 cells (setting [6])) was above 10 µM each time. For the same compound, the half-maximal effective concentration (EC50) (in test [1] (setting [3]); with MCF-7 cells (setting [5])) was above 10 µM throughout.
With `CC1(CO)CCC(c2ccc(O)cc2)=C(c2ccc(O)cc2)C1` (centres unmarked) [Compound 27, (1-methyl-3,4-di(4-hydroxy-phenyl)-cyclohex-3-enyl)-methanol], the IC50 in test [2] was 0.5 µM; in test [1] (setting [4]), above 10 µM; at hER-β it was 1.5 µM; in the test on MCF-7 cells (setting [6]), above 10 µM. In addition, the EC50 (in test [1] (setting [3]); with MCF-7 cells (setting [5])) was above 10 µM throughout.
`CC1=C(C)CC(C)(CO)C(C)C1` (centres unmarked) [Compound 36]: the 50% inhibitory concentration (IC50) is above 10 µM in test [2] and 6.9 µM on hER-β.
On to `CCOC(=O)C1CC=C(c2ccc(OC)cc2)C(Cc2ccc(OCCN3CCCCC3)cc2)C1C` (centres unmarked) [Compound 39], for which the IC50 (in test [2]; in test [1] (setting [4]); at hER-β; in the test with MCF-7 cells (setting [6])) was above 10 µM each time. Further, the EC50 (in test [1] (setting [3]); in the test on MCF-7 cells (setting [5])) was above 10 µM each time.
`O=C1CCCC2CC(c3ccccc3)=C(c3ccccc3)CC12` (centres unmarked) [Compound 56, 6,7-Diphenyl-3,4,4a,5,8,8a-hexahydro-2H-naphthalen-1-one]: the EC50 (in test [1] (setting [3]); with MCF-7 cells (setting [5])) was above 10 µM throughout. Also, the IC50 (in test [1] (setting [4]); with MCF-7 cells (setting [6])) was above 10 µM in each case.
For `COc1ccc(C2=C(c3ccc(OC)cc3)C[C@H]3[C@H](CC[C@H]3O)C2)cc1` [Compound 57, 5,6-Bis-(4-methoxy-phenyl)-2,3,3a,4,7,7a-hexahydro-1H-inden-1R-ol], the IC50 was above 10 µM in test [2] and 4.9 µM on hER-β.
In the case of `CC1C(CO)CC=C(c2ccc(O)cc2)C1Cc1ccc(OCCN2CCCCC2)cc1` (centres unmarked) [Compound 74], the results for the IC50 (in test [2]; on hER-β) were 0.37 µM and 0.38 µM, respectively.
